# According to patent US6448378B2, “Compound delivery using rapidly dissolving collagen film” (priority 1998, dated 2002):
# Legend:
# [1] = HPLC analysis of mitomycin solution stability; format: physicochemical; conditions: storage at ambient temperature and 4° C. in the dark
# Protocol: In contrast to the stability of mitomycin in the collagen film, HPLC analysis of the mitomycin solution determined that stability was maintained for only 4 days following storage at ambient temperature and 4° C. in the dark. Dissolution and storage in 0.9% saline or phosphate buffer (pH 7.4) is not recommended due to degradation and precipitation.
# [2] = system: human subconjunctival fibroblasts derived from Tenon's membrane; conditions: freshly prepared 0.4 mg/ml solution, dissolved in USP sterile water
# Protocol: 6 mm diameter discs were cut from the film and applied to human subconjunctival fibroblasts derived from Tenon's membrane layered in 96 well plates (CSM supplemented with 10% fetal bovine serum). After 72 hours, mitomycin-induced inhibition of cell division was assessed by measuring the reduction in fluorescence intensity (RFU) using a fluorogenic CalceinAM assay (see, for example, Decherchi et al., J. Neurosci. Meth. 71: 205 (1997); Sugita, Pflitgers Arch. 429: 555 (1995); Padanilam et al., Ann. NY Acad. Sci. 720: 111 (1994); Lichtenfels et al., J. Immunol. Meth. 172: 227 (1994); and Wang et al., Human Immunol. 37: 264 (1993)).
smiles,measurement,setting,value
"CO[C@@]12[C@H](COC(N)=O)C3=C(C(=O)C(C)=C(N)C3=O)N1C[C@@H]1N[C@@H]12 [mitomycin solution, mitomycin]",time for which stability of the solution was maintained (HPLC),[1],4 days
same,"% cell death inhibition relative to the values of the mitomycin-collagen films (91%, 90%, 92%)",[2],comparable
